In US20260201335A1, “A Method to Generate Cardiac Pericytes from Human Induced Pluripotent Stem Cells” (The Board of Trustees of the Leland Stanford Junior …, priority 2022, published 2026):

What was measured:
iPSC-CPs [1] = experiment: Gene clustering / gene ontology analysis of treated iPSC-CPs (RNA-seq); assay type: cell-based, human; settings: sunitinib (5 μM)/thalidomide (1 μM), 72 hr
CPs = settings: mice, cited from earlier work
primary and iPSC-CPs = experiment: Thalidomide rescue of sunitinib-induced CP death (cell morphology); assay type: cell-based, human; settings: sunitinib (5 μM)/thalidomide (1 μM), 72 hr
Description: (§1) FIG. 1. Phenotypic characterization and functional assessment of stepwise differentiated iPSC-cardiac pericytes. A, A schematic showing stage-specific inhibition and activation of morphogens to generate pure epicardial cells (EPI) from human induced pluripotent stem cells (iPSCs). […] MPS, mid-primitive streak; LPM, lateral plate mesoderm; SM, splanchnic mesoderm; ST, septum transversum; PEO, pre-epicardial organ. B, Immunofluorescent images (ZO1 and WT1), flow cytometry (WT1) graphs (n=10 iPSC lines, 5M/5F), and quantitative data showing EPI induction efficiency by stepwise (i) and GiWiGi (ii) protocols. C, Quantitative reverse transcription PCR (RT-qPCR) results showing expression levels of canonical (WT1, TBX18, and TCF21) and mature (ALDH1A2, UPK3B, and ANXA8) markers of EPIs derived by both protocols. D, Single-cell ATAC sequencing (scATAC-seq) of EPIs generated by both GiWiGi (ii) and stepwise (iii) protocols are projected to that of human fetal heart cell clusters (i). […] H, Bright field and immunofluorescent images of iPSC-derived SMCs, cardiac fibroblasts (CFs), and endothelial cells (ECs).

iPSC-CPs [2] = experiment: Calcium imaging using Fura-2 AM after carbachol; assay type: cell-based, human
Description: (§2) FIG. 1. […] Key changes of hallmarks in each cluster are highlighted. […] GraphPad Prism 9 was used for statistical analysis. All data are presented as mean±sem.
(§3) Next, we examined the relative cell contraction capacities of iPSC-CPs versus iPSC-SMCs by measuring intracellular calcium transients after carbachol treatment. […] We also tested the pro-angiogenic potentials of iPSC-CPs.

iPSC-SMCs = experiment: Calcium imaging using Fura-2 AM after carbachol; assay type: cell-based, human; settings: iPSC-SMCs after carbachol treatment
Description: as §2, §3

iPSC-CPs [3] = experiment: PrestoBlue viability assay, sunitinib dose-response; assay type: cell-based, human; settings: 72 hr, sunitinib 0 μM-100 μM
Description: as §1

stepwise EPIs = experiment: Differentiation of stepwise EPIs to iPSC-CPs with exogenous PDGF-BB (flow cytometry); assay type: cell-based, human; settings: exogenous PDGF-BB in pericyte medium
Description: as §2
Next, we differentiated stepwise EPIs in a commercial pericyte medium and observed that it took at least 12 days to generate iPSC-CPs (FIG. 1E) with low efficiency (FIG. 1F).
Day 11. EPI to Cardiac pericyte, CP. Aspects of the disclosure relate to producing cardiac pericytes through contacting a population of epicardial cells with a cardiac pericyte composition. As described herein, cardiac pericyte induction compositions may vary and generally comprise effective amounts of a PDGF pathway activator in a commercial pericyte medium (ScienCell cat #1201). An exemplary CP induction medium comprises 10 ng/ml PDGF-BB in pericyte medium.

Question: With `O=C1CCC(N2C(=O)c3ccccc3C2=O)C(=O)N1` (stereo not drawn) [thalidomide] as the molecule, how does the “genes associated with cell cycle, pericyte function, and DNA damage” value (iPSC-CPs [1]) read?
Answer: restored genes associated with cell cycle, pericyte function, and DNA damage to a baseline level

Question: What about the “rescue from sunitinib-induced CP loss and cardiac dysfunction” value (CPs) of the same molecule?
Answer: can rescue mice from sunitinib-induced CP loss and cardiac dysfunction

Question: What about the “rescue of CP death” value (primary and iPSC-CPs) of the same molecule?
Answer: profoundly rescued CP death

Question: Which results are given for `C[N+](C)(C)CCOC(N)=O` [carbachol]?
Answer: calcium amplitude, iPSC-CPs versus iPSC-SMCs (iPSC-CPs [2]; after carbachol treatment): much smaller calcium amplitude; contraction pattern (intracellular calcium transients) (iPSC-CPs [2]; iPSC-CPs after carbachol treatment): stereotypical contraction pattern; contraction pattern (intracellular calcium transients) (iPSC-SMCs): stereotypical contraction pattern

Question: For `CCN(CC)CCNC(=O)c1c(C)[nH]c(/C=C2\C(=O)Nc3ccc(F)cc32)c1C` [sunitinib], which “sunitinib-induced cell death, sensitivity of iPSC-CPs versus iPSC-CMs” value (iPSC-CPs [3]) is on record?
Answer: iPSC-CPs were more sensitive than iPSC-CMs

Question: And the “coronary microvascular abnormalities and cardiac dysfunction, primary target cells” value (CPs; previous study)?
Answer: CPs were the primary targets

B1: PDGF-BB: platelet-derived growth factor ligand predominantly secreted by ECs; PDGF pathway activator (protein, UniProt P01127 82-190, looked up)
Platelet-derived growth …: SLGSLTIAEPAMIAECKTRTEVFEISRRLIDRTNANFLVWPPCVEVQRCSGCCNNRNVQCRPTQVQLRPVQVRKIEIVRKKPIFKKATVTLEDHLACKCETVAAARPVT
modifications: homodimer
Question: Which “generation of iPSC-CPs (PDGFRβ+/CD146+/NG2+/CD13+)” value (stepwise EPIs) does the source give for B1 here?
Answer: successfully generated pure iPSC-CPs
